In US12252492B2, “Substituted fused pyrrolo-diazepinones and uses thereof” (Northwestern University, priority 2018, dated 2025):

test system: A549/ATCC; experiment: NCI60 one-dose screen, A549; type: cell-based, human; conditions: A549 cells; single concentration of 10 μM; NCI60 panel
Protocol: Anti-cancer activity screening of all compounds was performed by the NCI Developmental Therapeutics Program (DTP) through their NCI60 screening initiative. Assay details can be found at the website dtp.cancer.gov/discovery_development/nci-60/methodology.htm. Information from this website is reproduced here for convenience.
As of early 2007 all compounds submitted to the NCI 60 Cell screen are tested initially at a single high dose (10^-5 M) in the full NCI 60 cell panel. Only compounds which satisfy pre-determined threshold inhibition criteria in a minimum number of cell lines will progress to the full 5-dose assay. The threshold inhibition criteria for progression to the 5-dose screen was selected to efficiently capture compounds with anti-proliferative activity based on careful analysis of historical DTP screening data. The threshold criteria may be updated as additional data becomes available.
The One-dose data will be reported as a mean graph of the percent growth of treated cells and will be similar in appearance to mean graphs from the 5-dose assay. The number reported for the One-dose assay is growth relative to the no-drug control, and relative to the time zero number of cells. This allows detection of both growth inhibition (values between 0 and 100) and lethality (values less than 0). This is the same as for the 5-dose assay, described below. For example, a value of 100 means no growth inhibition. A value of 40 would mean 60% growth inhibition. A value of 0 means no net growth over the course of the experiment. A value of −40 would mean 40% lethality. A value of −100 means all cells are dead. Information from the One-dose mean graph is available for COMPARE analysis.
The human tumor cell lines of the cancer screening panel are grown in RPMI 1640 medium containing 5% fetal bovine serum and 2 mM L-glutamine. For a typical screening experiment, cells are inoculated into 96 well microtiter plates in 100 μL at plating densities ranging from 5,000 to 40,000 cells/well depending on the doubling time of individual cell lines. After cell inoculation, the microtiter plates are incubated at 37° C., 5% CO2, 95% air and 100% relative humidity for 24 h prior to addition of experimental drugs.
After 24 h, two plates of each cell line are fixed in situ with TCA, to represent a measurement of the cell population for each cell line at the time of drug addition (Tz). Experimental drugs are solubilized in dimethyl sulfoxide at 400-fold the desired final maximum test concentration and stored frozen prior to use. At the time of drug addition, an aliquot of frozen concentrate is thawed and diluted to twice the desired final maximum test concentration with complete medium containing 50 μg/ml gentamicin. Additional four, 10-fold or ½ log serial dilutions are made to provide a total of five drug concentrations plus control. Aliquots of 100 μl of these different drug dilutions are added to the appropriate microtiter wells already containing 100 μl of medium, resulting in the required final drug concentrations.
Following drug addition, the plates are incubated for an additional 48 h at 37° C., 5% CO2, 95% air, and 100% relative humidity. For adherent cells, the assay is terminated by the addition of cold TCA. Cells are fixed in situ by the gentle addition of 50 μl of cold 50% (w/v) TCA (final concentration, 10% TCA) and incubated for 60 minutes at 4° C. The supernatant is discarded, and the plates are washed five times with tap water and air dried. Sulforhodamine B (SRB) solution (100 μl) at 0.4% (w/v) in 1% acetic acid is added to each well, and plates are incubated for 10 minutes at room temperature. After staining, unbound dye is removed by washing five times with 1% acetic acid and the plates are air dried. Bound stain is subsequently solubilized with 10 mM trizma base, and the absorbance is read on an automated plate reader at a wavelength of 515 nm. […]

SMILES | reduction of cell growth of A549 non-small cell lung cancer cells [%]
CC1(C)C2=C(C(=O)N1Cc1ccccc1)C(c1ccco1)N(C(=O)C1CCC1)CCN2 (stereo not shown) [Compound 8m, 7-benzyl-4-(cyclobutanecarbonyl)-5-(furan-2-yl)-8,8-dimethyl-2,3,4,5,7,8-hexahydropyrrolo[3,4-e][1,4]diazepin-6(1H)-one] | 24
CC(C)C1C2=C(NCCN1C(=O)c1cccnc1)C(C)(C)N(Cc1ccccc1)C2=O (stereo not shown) [Compound 8f] | 32
CC(C)C1C2=C(NCCN1C(=O)C1CCCC1)C(C)(C)N(Cc1ccccc1)C2=O (stereo not shown) [Compound 8c] | 24
CC(C)C1C2=C(NCCN1C(=O)c1ccncc1)C(C)(C)N(Cc1ccccc1)C2=O (stereo not shown) [Compound 8e] | < 5
